Experimental data reported in ChEMBL document CHEMBL5543097, “Synthesis and structure-activity relationships of novel 14-membered 2-fluoro ketolides with structural modification at the C11 position” (Eur J Med Chem, 2024).
Values after ≈ are worked out from the molar mass of the structure shown. Active and inactive are the calls of the source. The rule behind the calls is not given here.

Key:
[1] = Metabolic stability in human liver microsome assessed as half life measured at 60 mins by LC-MS/MS analysis; assay type: ADME; conditions: liver microsomes
Streptococcus pneumoniae [2] = assay: Potency index, ratio of telithromycin MIC to test compound MIC for antibacterial activity against Streptococcus pneumoniae SPN19-14 assessed as inhibition of visible bacterial growth incubated for 18 hrs by broth microdilution method; assay type: functional
Haemophilus influenzae [3] = assay: Antibacterial activity against Haemophilus influenzae HIN 19-18 assessed as inhibition of bacterial growth incubated for 20 to 24 hrs by CLSI based broth microdilution method; assay type: functional; conditions: HIN 19-18, time 20-24 hrs
[4] = system: Staphylococcus epidermidis; assay: Potency index, ratio of telithromycin MIC to test compound MIC for antibacterial activity against erythromycin-resistant Staphylococcus epidermidis 19-8 assessed as inhibition of visible bacterial growth incubated for 18 hrs by broth microdilution method; assay type: functional
Streptococcus pneumoniae [5] = assay: Potency index, ratio of telithromycin MIC to test compound MIC for antibacterial activity against Streptococcus pneumoniae SPN19-13 assessed as inhibition of visible bacterial growth incubated for 18 hrs by broth microdilution method; assay type: functional
[6] = Metabolic stability in human liver microsome assessed as intrinsic clearance measured at 60 mins by LC-MS/MS analysis; assay type: ADME; conditions: liver microsomes, read-out: CLH
[7] = system: Staphylococcus epidermidis; assay: Potency index, ratio of telithromycin MIC to test compound MIC for antibacterial activity against erythromycin-resistant Staphylococcus epidermidis 19-9 assessed as inhibition of visible bacterial growth incubated for 18 hrs by broth microdilution method; assay type: functional
[8] = Metabolic stability in human liver microsome assessed as parent compound remaining in presence of NADPH measured at 60 mins by LC-MS/MS analysis; assay type: ADME; conditions: liver microsomes, read-out: Stability
[9] = system: Staphylococcus epidermidis; assay: Potency index, ratio of telithromycin MIC to test compound MIC for antibacterial activity against erythromycin-resistant Staphylococcus epidermidis 19-6 assessed as inhibition of visible bacterial growth incubated for 18 hrs by broth microdilution method; assay type: functional
Moraxella catarrhalis [10] = assay: Antibacterial activity against Moraxella catarrhalis BCA 19-6 assessed as inhibition of bacterial growth incubated for 24 hrs by CLSI based broth microdilution method; assay type: functional; conditions: Moraxella catarrhalis, BCA 19-6, 24 h, read-out: MIC
[11] = Metabolic stability in human liver microsome assessed as parent compound remaining in absence of NADPH measured at 60 mins by LC-MS/MS analysis; assay type: ADME; conditions: liver microsomes, read-out: Stability
Moraxella catarrhalis [12] = assay: Antibacterial activity against Moraxella catarrhalis BCA 19-31 assessed as inhibition of bacterial growth incubated for 24 hrs by CLSI based broth microdilution method; assay type: functional; conditions: BCA 19-31, 24 h
Streptococcus agalactiae [13] = assay: Antibacterial activity against erythromycin-resistant Streptococcus agalactiae 19-9 assessed as inhibition of visible bacterial growth incubated for 18 hrs by broth microdilution method; assay type: functional
[14] = system: Staphylococcus epidermidis; assay: Antibacterial activity against erythromycin-resistant Staphylococcus epidermidis 19-8 assessed as inhibition of visible bacterial growth incubated for 18 hrs by broth microdilution method; assay type: functional
[15] = system: Staphylococcus epidermidis; assay: Antibacterial activity against erythromycin-resistant Staphylococcus epidermidis 19-11 assessed as inhibition of visible bacterial growth incubated for 18 hrs by broth microdilution method; assay type: functional
Haemophilus influenzae [16] = assay: Antibacterial activity against Haemophilus influenzae HIN 20-18 assessed as inhibition of bacterial growth incubated for 20 to 24 hrs by CLSI based broth microdilution method; assay type: functional; conditions: time 20-24 hrs
[17] = system: Staphylococcus epidermidis; assay: Antibacterial activity against erythromycin-resistant Staphylococcus epidermidis 19-4 assessed as inhibition of visible bacterial growth incubated for 18 hrs by broth microdilution method; assay type: functional
Streptococcus pneumoniae [18] = assay: Potency index, ratio of telithromycin MIC to test compound MIC for antibacterial activity against Streptococcus pneumoniae SPN19-8 assessed as inhibition of visible bacterial growth incubated for 18 hrs by broth microdilution method; assay type: functional
Streptococcus pneumoniae [19] = assay: Antibacterial activity against erythromycin-resistant Streptococcus pneumoniae SPN19-8 assessed as inhibition of visible bacterial growth incubated for 18 hrs by broth microdilution method; assay type: functional
[20] = system: Staphylococcus epidermidis; assay: Potency index, ratio of telithromycin MIC to test compound MIC for antibacterial activity against erythromycin-resistant Staphylococcus epidermidis 19-4 assessed as inhibition of visible bacterial growth incubated for 18 hrs by broth microdilution method; assay type: functional
Streptococcus pneumoniae [21] = assay: Antibacterial activity against erythromycin-resistant Streptococcus pneumoniae SPN19-13 assessed as inhibition of visible bacterial growth incubated for 18 hrs by broth microdilution method; assay type: functional
Streptococcus pneumoniae [22] = assay: Antibacterial activity against erythromycin-resistant Streptococcus pneumoniae SPN19-14 assessed as inhibition of visible bacterial growth incubated for 18 hrs by broth microdilution method; assay type: functional
[23] = system: Staphylococcus epidermidis; assay: Antibacterial activity against erythromycin-resistant Staphylococcus epidermidis 19-9 assessed as inhibition of visible bacterial growth incubated for 18 hrs by broth microdilution method; assay type: functional
[24] = system: Staphylococcus epidermidis; assay: Potency index, ratio of telithromycin MIC to test compound MIC for antibacterial activity against erythromycin-resistant Staphylococcus epidermidis 19-5 assessed as inhibition of visible bacterial growth incubated for 18 hrs by broth microdilution method; assay type: functional
Moraxella catarrhalis [25] = assay: Antibacterial activity against Moraxella catarrhalis BCA 19-5 assessed as inhibition of bacterial growth incubated for 24 hrs by CLSI based broth microdilution method; assay type: functional; conditions: Moraxella catarrhalis, BCA 19-5, 24 h, read-out: MIC
[26] = system: Staphylococcus epidermidis; assay: Antibacterial activity against erythromycin-resistant Staphylococcus epidermidis 19-5 assessed as inhibition of visible bacterial growth incubated for 18 hrs by broth microdilution method; assay type: functional
[27] = system: Staphylococcus epidermidis; assay: Potency index, ratio of telithromycin MIC to test compound MIC for antibacterial activity against erythromycin-resistant Staphylococcus epidermidis 19-11 assessed as inhibition of visible bacterial growth incubated for 18 hrs by broth microdilution method; assay type: functional
[28] = Cytotoxicity against mouse AML12 cells assessed as reduction in cell viability incubated for 48 hrs by MTT assay; assay type: toxicity, cell-based
Streptococcus pyogenes = assay: Antibacterial activity against erythromycin-resistant Streptococcus pyogenes ATCC 19615 assessed as inhibition of visible bacterial growth incubated for 18 hrs by broth microdilution method; assay type: functional
Haemophilus influenzae [29] = assay: Antibacterial activity against Haemophilus influenzae HIN 19-15 assessed as inhibition of bacterial growth incubated for 20 to 24 hrs by CLSI based broth microdilution method; assay type: functional; conditions: time 20-24 hrs
[30] = system: Staphylococcus epidermidis; assay: Antibacterial activity against erythromycin-resistant Staphylococcus epidermidis 19-6 assessed as inhibition of visible bacterial growth incubated for 18 hrs by broth microdilution method; assay type: functional
Streptococcus agalactiae [31] = assay: Antibacterial activity against erythromycin-resistant Streptococcus agalactiae 19-8 assessed as inhibition of visible bacterial growth incubated for 18 hrs by broth microdilution method; assay type: functional
Escherichia coli = assay: Antibacterial activity against Escherichia coli ATCC 35218 assessed as inhibition of visible bacterial growth; assay type: functional, organism-based

Structure (SMILES)	Ratio (Streptococcus pneumoniae [2])	MIC (Haemophilus influenzae [3]) [µg/mL]	Ratio [4]	MIC (Moraxella catarrhalis [10]) [µg/mL]	MIC (Moraxella catarrhalis [12]) [µg/mL]	MIC (Streptococcus agalactiae [13]) [µg/mL]	MIC [14] [µg/mL]	MIC [15] [µg/mL]	MIC [17] [µg/mL]	MIC (Streptococcus pneumoniae [19]) [µg/mL]	MIC (Streptococcus pneumoniae [21]) [µg/mL]	MIC (Streptococcus pneumoniae [22]) [µg/mL]	MIC [23] [µg/mL]	MIC (Moraxella catarrhalis [25]) [µg/mL]	MIC [26] [µg/mL]	CC50 at 48 h [28] [µM]	MIC (Streptococcus pyogenes) [µg/mL]	MIC (Haemophilus influenzae [29]) [µg/mL]	MIC [30] [µg/mL]	MIC (Streptococcus agalactiae [31]) [µg/mL]	further results
CC[C@H]1OC(=O)[C@@](C)(F)C(=O)[C@H](C)[C@@H](O[C@@H]2O[C@H](C)C[C@H](N(C)C)[C@H]2O)[C@](C)(OC)C[C@@H](C)C(=O)[C@H](C)[C@H]2N(CCCOC(=O)Nc3ccc4c(c3)CCO4)C(=O)O[C@]12C	<4	2 (≈ 2.35 µM)	4	0.125 (≈ 0.147 µM)	0.06 (≈ 0.0706 µM)	2 (≈ 2.35 µM)	0.03 (≈ 0.0353 µM)	< 0.03	0.03 (≈ 0.0353 µM)	0.06 (≈ 0.0706 µM)	0.6 (≈ 0.706 µM)	0.06 (≈ 0.0706 µM)	0.06 (≈ 0.0706 µM)	0.06 (≈ 0.0706 µM)	< 0.03	> 100	< 0.03	8 (≈ 9.41 µM)	0.06 (≈ 0.0706 µM)		half-life [1]: 2 min; Ratio (Streptococcus pneumoniae [5]): <4; microsomal CLint [6]: 341 µL/min/mg; Ratio [7]: 4; remaining at 1 h [8]: 0.3%; Ratio [9]: 4; remaining at 1 h [11]: 89.4%; MIC (Haemophilus influenzae [16]): 8 µg/mL (≈ 9.41 µM); Ratio (Streptococcus pneumoniae [18]): <4; Ratio [20]: 4; Ratio [24]: 4; Ratio [27]: 4
CC[C@H]1OC(=O)[C@@](C)(F)C(=O)[C@H](C)[C@@H](O[C@@H]2O[C@H](C)C[C@H](N(C)C)[C@H]2O)[C@](C)(OC)C[C@@H](C)C(=O)[C@H](C)[C@H]2N(CCCOC(=O)Nc3cccnc3)C(=O)O[C@]12C		4 (≈ 4.94 µM)		0.06 (≈ 0.0742 µM)	0.06 (≈ 0.0742 µM)	0.25 (≈ 0.309 µM)	0.125 (≈ 0.155 µM)	0.125 (≈ 0.155 µM)	0.25 (≈ 0.309 µM)	0.125 (≈ 0.155 µM)	0.125 (≈ 0.155 µM)	0.125 (≈ 0.155 µM)	0.5 (≈ 0.618 µM)	0.06 (≈ 0.0742 µM)	0.125 (≈ 0.155 µM)	> 100	< 0.03	4 (≈ 4.94 µM)	125 (≈ 155 µM)	< 0.03	Activity (Escherichia coli): Active
CC[C@H]1OC(=O)[C@@](C)(F)C(=O)[C@H](C)[C@@H](O[C@@H]2O[C@H](C)C[C@H](N(C)C)[C@H]2O)[C@](C)(OC)C[C@@H](C)C(=O)[C@H](C)[C@H]2N(CCCOC(=O)Nc3ccc(F)cc3)C(=O)O[C@]12C	<4	2 (≈ 2.42 µM)	4	0.03 (≈ 0.0363 µM)	0.03 (≈ 0.0363 µM)	0.25 (≈ 0.303 µM)	< 0.03	< 0.03	< 0.03	< 0.03	< 0.03	< 0.03	0.06 (≈ 0.0726 µM)	0.03 (≈ 0.0363 µM)	< 0.03	97.9	< 0.03	4 (≈ 4.84 µM)	< 0.03	< 0.03	half-life [1]: 3.8 min; Ratio (Streptococcus pneumoniae [5]): <4; microsomal CLint [6]: 183 µL/min/mg; Ratio [7]: 4; remaining at 1 h [8]: 0.4%; Ratio [9]: 4; remaining at 1 h [11]: 95%; Ratio (Streptococcus pneumoniae [18]): <4; Ratio [20]: 4; Ratio [24]: 4; Ratio [27]: 4
CC[C@H]1OC(=O)[C@@](C)(F)C(=O)[C@H](C)[C@@H](O[C@@H]2O[C@H](C)C[C@H](N(C)C)[C@H]2O)[C@](C)(OC)C[C@@H](C)C(=O)[C@H](C)[C@H]2N(CCCOC(=O)Nc3cccc(F)c3)C(=O)O[C@]12C	<4	4 (≈ 4.84 µM)	4	< 0.03	< 3	0.06 (≈ 0.0726 µM)	< 0.03	< 0.03	< 0.03	< 0.03	< 0.03	< 0.03	< 0.03	< 0.03	< 0.03	33.7	< 0.03	8 (≈ 9.69 µM)	< 0.03	< 0.03	Ratio (Streptococcus pneumoniae [5]): <4; Ratio [7]: 4; Ratio [9]: 4; Ratio (Streptococcus pneumoniae [18]): <4; Ratio [20]: 4; Ratio [24]: 4; Ratio [27]: 4; Activity (Escherichia coli): Active
CC[C@H]1OC(=O)[C@@](C)(F)C(=O)[C@H](C)[C@@H](O[C@@H]2O[C@H](C)C[C@H](N(C)C)[C@H]2O)[C@](C)(OC)C[C@@H](C)C(=O)[C@H](C)[C@H]2N(CCCOC(=O)Nc3ccccc3[N+](=O)[O-])C(=O)O[C@]12C		8 (≈ 9.38 µM)		0.5 (≈ 0.586 µM)	0.125 (≈ 0.147 µM)	4 (≈ 4.69 µM)	0.125 (≈ 0.147 µM)	0.125 (≈ 0.147 µM)	0.125 (≈ 0.147 µM)	1 (≈ 1.17 µM)	0.25 (≈ 0.293 µM)	0.25 (≈ 0.293 µM)	0.25 (≈ 0.293 µM)	0.5 (≈ 0.586 µM)	0.125 (≈ 0.147 µM)	27.4	< 0.03	8 (≈ 9.38 µM)	0.125 (≈ 0.147 µM)	< 0.03	Activity (Escherichia coli): Active
